{"source": "patent US11767310B2", "about": "“Nicotinamide RIPK1 inhibitors” (AbbVie Inc., priority 2021, dated 2023)", "assay_in_all_cases": "Kinase binding screen", "key": {"[1]": {"biological_target": "PIK3CA(Q546K) (Homo sapiens (Human), UniProt P42336, Q546K)", "details": "read-out: Percent Control at 100 nM Compound Concentration"}, "[2]": {"biological_target": "IKK-beta (Homo sapiens (Human), UniProt O14920)", "details": "read-out: Percent Control at 100 nM Compound Concentration"}, "[3]": {"biological_target": "PRKCI (Homo sapiens (Human), UniProt P41743)", "details": "read-out: Percent Control at 100 nM Compound Concentration"}, "[4]": {"biological_target": "PRKCD (Homo sapiens (Human), UniProt Q05655)", "details": "read-out: Percent Control at 100 nM Compound Concentration"}, "[5]": {"biological_target": "HIPK2 (Homo sapiens (Human), UniProt Q9H2X6)", "details": "read-out: Percent Control at 100 nM Compound Concentration"}, "[6]": {"biological_target": "PIK3C2B (Homo sapiens (Human), UniProt O00750)", "details": "read-out: Percent Control at 100 nM Compound Concentration"}, "[7]": {"biological_target": "CIT (Homo sapiens (Human), UniProt O14578)", "sequence (O14578 whole entry)": "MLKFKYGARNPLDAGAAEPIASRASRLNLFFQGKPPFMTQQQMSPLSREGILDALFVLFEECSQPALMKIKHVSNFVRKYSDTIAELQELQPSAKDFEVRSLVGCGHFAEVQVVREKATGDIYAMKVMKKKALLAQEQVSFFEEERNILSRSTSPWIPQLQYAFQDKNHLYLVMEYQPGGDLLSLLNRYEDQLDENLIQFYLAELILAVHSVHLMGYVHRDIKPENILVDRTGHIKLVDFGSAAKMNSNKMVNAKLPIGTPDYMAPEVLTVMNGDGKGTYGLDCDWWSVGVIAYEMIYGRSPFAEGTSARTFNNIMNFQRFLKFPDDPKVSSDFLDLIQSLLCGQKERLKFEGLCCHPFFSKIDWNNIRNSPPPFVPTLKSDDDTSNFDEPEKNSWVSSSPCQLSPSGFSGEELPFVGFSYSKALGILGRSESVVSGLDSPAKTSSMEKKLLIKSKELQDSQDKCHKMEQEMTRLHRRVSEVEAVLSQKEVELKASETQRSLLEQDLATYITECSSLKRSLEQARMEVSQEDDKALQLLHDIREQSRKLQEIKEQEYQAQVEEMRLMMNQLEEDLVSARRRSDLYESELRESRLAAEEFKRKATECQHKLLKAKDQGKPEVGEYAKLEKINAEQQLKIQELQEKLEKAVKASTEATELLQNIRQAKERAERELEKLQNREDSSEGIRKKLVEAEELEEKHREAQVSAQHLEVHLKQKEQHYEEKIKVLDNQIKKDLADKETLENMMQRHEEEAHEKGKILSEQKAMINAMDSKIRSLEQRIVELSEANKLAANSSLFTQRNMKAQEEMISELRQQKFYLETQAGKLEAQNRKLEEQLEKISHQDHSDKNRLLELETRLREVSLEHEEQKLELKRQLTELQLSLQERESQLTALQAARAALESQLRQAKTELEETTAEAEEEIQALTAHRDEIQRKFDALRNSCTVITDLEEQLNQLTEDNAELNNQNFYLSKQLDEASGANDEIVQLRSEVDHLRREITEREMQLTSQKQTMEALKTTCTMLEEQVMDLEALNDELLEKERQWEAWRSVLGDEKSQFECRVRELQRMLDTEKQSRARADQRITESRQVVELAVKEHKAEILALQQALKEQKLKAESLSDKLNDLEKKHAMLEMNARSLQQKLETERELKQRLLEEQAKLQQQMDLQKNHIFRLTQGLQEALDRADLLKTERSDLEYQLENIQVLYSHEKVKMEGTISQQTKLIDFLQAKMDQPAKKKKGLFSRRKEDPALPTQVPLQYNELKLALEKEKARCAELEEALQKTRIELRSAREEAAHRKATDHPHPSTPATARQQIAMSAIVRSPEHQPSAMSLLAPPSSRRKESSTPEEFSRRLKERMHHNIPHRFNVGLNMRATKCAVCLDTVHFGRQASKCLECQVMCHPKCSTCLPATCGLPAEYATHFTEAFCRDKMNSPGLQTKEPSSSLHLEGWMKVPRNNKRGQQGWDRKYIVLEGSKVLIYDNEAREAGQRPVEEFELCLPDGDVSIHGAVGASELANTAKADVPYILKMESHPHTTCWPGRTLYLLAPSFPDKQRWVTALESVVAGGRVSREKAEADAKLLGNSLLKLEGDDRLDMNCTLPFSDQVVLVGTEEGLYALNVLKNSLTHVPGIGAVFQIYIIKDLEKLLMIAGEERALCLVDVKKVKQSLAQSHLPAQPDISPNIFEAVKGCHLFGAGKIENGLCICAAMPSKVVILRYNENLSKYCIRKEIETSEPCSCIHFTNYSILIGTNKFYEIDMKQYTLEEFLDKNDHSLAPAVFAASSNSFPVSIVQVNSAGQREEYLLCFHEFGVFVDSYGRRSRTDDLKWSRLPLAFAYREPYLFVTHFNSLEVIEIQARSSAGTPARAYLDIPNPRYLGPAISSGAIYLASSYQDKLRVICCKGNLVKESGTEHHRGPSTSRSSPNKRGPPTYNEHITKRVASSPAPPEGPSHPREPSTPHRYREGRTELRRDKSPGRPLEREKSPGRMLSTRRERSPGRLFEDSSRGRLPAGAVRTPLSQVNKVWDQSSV", "details": "read-out: Percent Control at 100 nM Compound Concentration"}, "[8]": {"biological_target": "AMPK-alpha1 (Homo sapiens (Human), UniProt Q13131)", "details": "read-out: Percent Control at 100 nM Compound Concentration"}, "[9]": {"biological_target": "MAP3K4 (Homo sapiens (Human), UniProt Q9Y6R4)", "details": "read-out: Percent Control at 100 nM Compound Concentration"}, "[10]": {"biological_target": "BLK (Homo sapiens (Human), UniProt P51451)", "sequence (P51451 whole entry)": "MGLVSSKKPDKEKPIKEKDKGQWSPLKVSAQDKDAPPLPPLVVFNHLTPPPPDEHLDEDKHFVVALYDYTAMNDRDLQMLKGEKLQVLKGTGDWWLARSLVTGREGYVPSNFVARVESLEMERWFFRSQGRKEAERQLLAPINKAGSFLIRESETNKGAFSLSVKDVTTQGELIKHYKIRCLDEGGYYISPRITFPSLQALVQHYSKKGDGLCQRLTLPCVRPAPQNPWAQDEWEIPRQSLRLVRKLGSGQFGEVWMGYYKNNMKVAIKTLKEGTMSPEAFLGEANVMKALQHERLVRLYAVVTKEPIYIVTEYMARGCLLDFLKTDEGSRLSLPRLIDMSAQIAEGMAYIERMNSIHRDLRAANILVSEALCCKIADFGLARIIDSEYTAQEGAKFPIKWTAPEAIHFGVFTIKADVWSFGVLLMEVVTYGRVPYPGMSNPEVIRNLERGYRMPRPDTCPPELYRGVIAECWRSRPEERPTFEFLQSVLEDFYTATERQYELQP", "details": "read-out: Percent Control at 100 nM Compound Concentration"}, "[11]": {"biological_target": "CTK (Homo sapiens (Human), UniProt P42679)", "details": "read-out: Percent Control at 100 nM Compound Concentration"}, "[12]": {"biological_target": "ACVR2B (Homo sapiens (Human), UniProt Q13705)", "details": "read-out: Percent Control at 100 nM Compound Concentration"}, "[13]": {"biological_target": "ASK2 (Homo sapiens (Human), UniProt O95382)", "details": "read-out: Percent Control at 100 nM Compound Concentration"}, "[14]": {"biological_target": "TNK1 (Homo sapiens (Human), UniProt Q13470)", "details": "read-out: Percent Control at 100 nM Compound Concentration"}, "[15]": {"biological_target": "MST1 (Homo sapiens (Human), UniProt Q13043)", "sequence (Q13043 whole entry)": "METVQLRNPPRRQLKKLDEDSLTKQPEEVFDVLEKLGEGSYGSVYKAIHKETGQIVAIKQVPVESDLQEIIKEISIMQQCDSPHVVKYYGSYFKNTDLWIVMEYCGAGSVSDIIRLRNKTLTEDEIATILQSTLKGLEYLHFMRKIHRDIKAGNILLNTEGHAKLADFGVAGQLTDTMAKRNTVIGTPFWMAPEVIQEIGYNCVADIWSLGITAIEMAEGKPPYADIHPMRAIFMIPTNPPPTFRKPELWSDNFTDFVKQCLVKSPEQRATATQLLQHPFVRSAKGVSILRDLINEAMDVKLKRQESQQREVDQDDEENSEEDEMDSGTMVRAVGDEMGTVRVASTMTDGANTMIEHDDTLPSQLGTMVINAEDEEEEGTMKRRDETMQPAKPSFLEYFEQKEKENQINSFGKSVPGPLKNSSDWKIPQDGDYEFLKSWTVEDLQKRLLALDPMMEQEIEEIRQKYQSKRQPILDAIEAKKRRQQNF", "details": "read-out: Percent Control at 100 nM Compound Concentration"}, "[16]": {"biological_target": "MAP4K2 (Homo sapiens (Human), UniProt Q12851)", "details": "read-out: Percent Control at 100 nM Compound Concentration"}, "[17]": {"biological_target": "SgK110 (Homo sapiens (Human), UniProt P0C264)", "sequence (P0C264 whole entry)": "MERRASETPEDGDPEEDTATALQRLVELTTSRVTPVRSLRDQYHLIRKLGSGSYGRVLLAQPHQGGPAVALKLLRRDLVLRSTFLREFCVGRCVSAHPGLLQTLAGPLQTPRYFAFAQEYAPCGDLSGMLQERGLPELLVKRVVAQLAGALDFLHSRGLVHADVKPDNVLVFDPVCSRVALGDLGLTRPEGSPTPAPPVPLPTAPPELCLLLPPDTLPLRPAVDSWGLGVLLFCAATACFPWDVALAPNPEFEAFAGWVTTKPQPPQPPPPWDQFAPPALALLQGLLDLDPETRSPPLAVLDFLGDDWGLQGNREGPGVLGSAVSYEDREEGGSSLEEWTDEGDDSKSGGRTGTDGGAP", "details": "read-out: Percent Control at 100 nM Compound Concentration"}, "[18]": {"biological_target": "MY03B (Homo sapiens (Human), UniProt Q8WXR4)", "details": "read-out: Percent Control at 100 nM Compound Concentration"}, "[19]": {"biological_target": "ABL1(F317L)-phosphorylated (Homo sapiens (Human), UniProt P00519, F317L)", "details": "read-out: Percent Control at 100 nM Compound Concentration"}, "[20]": {"biological_target": "RET(V804L) (Homo sapiens (Human), UniProt P07949, V804L)", "details": "read-out: Percent Control at 100 nM Compound Concentration"}, "[21]": {"biological_target": "LYN (Homo sapiens (Human), UniProt P07948)", "sequence (P07948 whole entry)": "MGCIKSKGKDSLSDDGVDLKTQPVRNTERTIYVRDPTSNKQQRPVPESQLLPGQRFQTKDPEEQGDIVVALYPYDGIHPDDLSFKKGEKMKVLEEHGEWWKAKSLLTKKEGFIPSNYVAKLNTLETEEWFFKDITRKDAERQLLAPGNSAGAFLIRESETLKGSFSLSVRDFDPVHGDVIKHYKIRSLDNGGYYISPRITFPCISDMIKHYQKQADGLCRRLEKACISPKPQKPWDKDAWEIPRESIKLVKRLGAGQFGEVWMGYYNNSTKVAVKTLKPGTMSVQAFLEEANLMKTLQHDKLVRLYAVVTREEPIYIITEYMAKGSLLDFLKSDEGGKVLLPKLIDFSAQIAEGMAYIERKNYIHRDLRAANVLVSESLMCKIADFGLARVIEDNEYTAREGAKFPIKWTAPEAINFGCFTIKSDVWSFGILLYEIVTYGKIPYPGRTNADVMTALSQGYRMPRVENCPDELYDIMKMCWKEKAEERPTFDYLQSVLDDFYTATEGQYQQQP", "details": "read-out: Percent Control at 100 nM Compound Concentration"}, "[22]": {"system": "FLT3(ITD,D835V)", "design": "species or system human"}, "[23]": {"biological_target": "EGFR(G719S) (Homo sapiens (Human), UniProt P00533, G719S)", "details": "read-out: Percent Control at 100 nM Compound Concentration"}, "[24]": {"biological_target": "BMX (Homo sapiens (Human), UniProt P51813)", "sequence (P51813 whole entry)": "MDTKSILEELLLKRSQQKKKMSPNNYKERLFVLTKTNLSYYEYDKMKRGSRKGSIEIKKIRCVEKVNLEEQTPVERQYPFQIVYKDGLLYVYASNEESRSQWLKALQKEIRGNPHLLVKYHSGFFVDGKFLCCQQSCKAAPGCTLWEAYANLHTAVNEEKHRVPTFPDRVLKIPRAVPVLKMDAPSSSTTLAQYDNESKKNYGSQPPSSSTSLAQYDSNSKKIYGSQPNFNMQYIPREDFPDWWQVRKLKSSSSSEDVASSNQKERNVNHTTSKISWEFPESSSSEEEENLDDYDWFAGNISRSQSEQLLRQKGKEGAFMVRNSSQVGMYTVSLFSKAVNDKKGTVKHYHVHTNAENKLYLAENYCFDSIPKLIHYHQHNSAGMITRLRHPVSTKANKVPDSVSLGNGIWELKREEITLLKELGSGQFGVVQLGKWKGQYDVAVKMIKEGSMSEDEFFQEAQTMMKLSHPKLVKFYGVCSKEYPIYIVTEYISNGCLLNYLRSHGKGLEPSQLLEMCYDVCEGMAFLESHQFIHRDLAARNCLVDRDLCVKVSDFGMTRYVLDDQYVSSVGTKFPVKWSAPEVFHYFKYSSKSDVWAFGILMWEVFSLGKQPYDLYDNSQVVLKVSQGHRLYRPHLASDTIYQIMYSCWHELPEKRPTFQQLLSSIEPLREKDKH", "details": "read-out: Percent Control at 100 nM Compound Concentration"}, "[25]": {"biological_target": "QSK (Homo sapiens (Human), UniProt Q9Y2K2)", "details": "read-out: Percent Control at 100 nM Compound Concentration"}, "[26]": {"biological_target": "GSK3A (Homo sapiens (Human), UniProt P49840)", "sequence (P49840 whole entry)": "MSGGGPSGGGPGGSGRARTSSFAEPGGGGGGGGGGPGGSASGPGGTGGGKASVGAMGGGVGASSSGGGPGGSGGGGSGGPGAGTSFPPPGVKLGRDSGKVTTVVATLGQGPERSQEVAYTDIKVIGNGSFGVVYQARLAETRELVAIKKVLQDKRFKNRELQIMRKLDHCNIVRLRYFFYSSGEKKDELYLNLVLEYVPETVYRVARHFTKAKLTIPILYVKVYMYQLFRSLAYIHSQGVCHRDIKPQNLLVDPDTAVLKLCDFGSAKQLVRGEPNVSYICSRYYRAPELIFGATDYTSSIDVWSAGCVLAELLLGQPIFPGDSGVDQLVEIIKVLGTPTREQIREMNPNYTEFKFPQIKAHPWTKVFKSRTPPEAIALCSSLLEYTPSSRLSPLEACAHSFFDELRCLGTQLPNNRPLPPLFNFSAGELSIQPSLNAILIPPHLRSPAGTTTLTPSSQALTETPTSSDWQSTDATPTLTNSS", "details": "read-out: Percent Control at 100 nM Compound Concentration"}, "[27]": {"biological_target": "FGR (Homo sapiens (Human), UniProt P09769)", "details": "read-out: Percent Control at 100 nM Compound Concentration"}, "[28]": {"biological_target": "EGFR(L747-S752del, P753S) (Homo sapiens (Human), UniProt P00533, DEL747-752/P753S)", "details": "read-out: Percent Control at 100 nM Compound Concentration"}, "[29]": {"biological_target": "ERK8 (Homo sapiens (Human), UniProt Q8TD08)", "details": "read-out: Percent Control at 100 nM Compound Concentration"}}, "note": "Like-named read-outs stand apart in the source and are kept apart here."}
{"smiles": "CN(C[C@@H](O)Cc1ccccc1)C(=O)c1cncc(C#Cc2cnn(C(F)F)c2)c1", "note": "[Example 2, (S)-5-((1-(difluoromethyl)-1H-pyrazol-4-yl)ethynyl)-N-(2-hydroxy-3-phenylpropyl)-N-methylnicotinamide]", "values": [{"measurement": "remaining activity at 0.1 µM", "setting": "[1]; PIK3CA(Q546K)", "value": 96, "unit": "%"}, {"measurement": "remaining activity at 0.1 µM", "setting": "[2]; IKK-beta", "value": 96, "unit": "%"}, {"measurement": "remaining activity at 0.1 µM", "setting": "[3]; PRKCI", "value": 96, "unit": "%"}, {"measurement": "remaining activity at 0.1 µM", "setting": "[4]; PRKCD", "value": 98, "unit": "%"}, {"measurement": "remaining activity at 0.1 µM", "setting": "[5]; HIPK2", "value": 99, "unit": "%"}, {"measurement": "remaining activity at 0.1 µM", "setting": "[6]; PIK3C2B", "value": 100, "unit": "%"}, {"measurement": "remaining activity at 0.1 µM", "setting": "[7]; CIT", "value": 98, "unit": "%"}, {"measurement": "remaining activity at 0.1 µM", "setting": "[8]; AMPK-alpha1", "value": 100, "unit": "%"}, {"measurement": "remaining activity at 0.1 µM", "setting": "[9]; MAP3K4", "value": 100, "unit": "%"}, {"measurement": "remaining activity at 0.1 µM", "setting": "[10]; BLK", "value": 85, "unit": "%"}, {"measurement": "remaining activity at 0.1 µM", "setting": "[11]; CTK", "value": 100, "unit": "%"}, {"measurement": "remaining activity at 0.1 µM", "setting": "[12]; ACVR2B", "value": 91, "unit": "%"}, {"measurement": "remaining activity at 0.1 µM", "setting": "[13]; ASK2", "value": 100, "unit": "%"}, {"measurement": "remaining activity at 0.1 µM", "setting": "[14]; TNK1", "value": 100, "unit": "%"}, {"measurement": "remaining activity at 0.1 µM", "setting": "[15]; MST1", "value": 100, "unit": "%"}, {"measurement": "remaining activity at 0.1 µM", "setting": "[16]; MAP4K2", "value": 88, "unit": "%"}, {"measurement": "remaining activity at 0.1 µM", "setting": "[17]; SgK110", "value": 81, "unit": "%"}, {"measurement": "remaining activity at 0.1 µM", "setting": "[18]; MY03B", "value": 95, "unit": "%"}, {"measurement": "remaining activity at 0.1 µM", "setting": "[19]; ABL1(F317L)-phosphorylated", "value": 82, "unit": "%"}, {"measurement": "remaining activity at 0.1 µM", "setting": "[20]; RET(V804L)", "value": 100, "unit": "%"}, {"measurement": "remaining activity at 0.1 µM", "setting": "[21]; LYN", "value": 71, "unit": "%"}, {"measurement": "Percent Control at 100 nM Compound Concentration", "setting": "[22]", "value": 100, "unit": "%"}, {"measurement": "remaining activity at 0.1 µM", "setting": "[23]; EGFR(G719S)", "value": 100, "unit": "%"}, {"measurement": "remaining activity at 0.1 µM", "setting": "[24]; BMX", "value": 100, "unit": "%"}, {"measurement": "remaining activity at 0.1 µM", "setting": "[25]; QSK", "value": 88, "unit": "%"}, {"measurement": "remaining activity at 0.1 µM", "setting": "[26]; GSK3A", "value": 100, "unit": "%"}, {"measurement": "remaining activity at 0.1 µM", "setting": "[27]; FGR", "value": 100, "unit": "%"}, {"measurement": "remaining activity at 0.1 µM", "setting": "[28]; EGFR(L747-S752del, P753S)", "value": 100, "unit": "%"}, {"measurement": "remaining activity at 0.1 µM", "setting": "[29]; ERK8", "value": 100, "unit": "%"}]}
{"smiles": "CN(C[C@H](Cc1ccccc1)OP(=O)(O)O)C(=O)c1cncc(C#Cc2cnn(C(F)F)c2)c1", "note": "[Example 19, (S)-1-(5-((1-(difluoromethyl)-1H-pyrazol-4-yl)ethynyl)-N-methylnicotinamido)-3-phenylpropan-2-yl dihydrogen phosphate]", "values": [{"measurement": "remaining activity at 0.1 µM", "setting": "[1]", "value": 88, "unit": "%"}, {"measurement": "remaining activity at 0.1 µM", "setting": "[2]", "value": 96, "unit": "%"}, {"measurement": "remaining activity at 0.1 µM", "setting": "[3]", "value": 92, "unit": "%"}, {"measurement": "remaining activity at 0.1 µM", "setting": "[4]", "value": 94, "unit": "%"}, {"measurement": "remaining activity at 0.1 µM", "setting": "[5]", "value": 79, "unit": "%"}, {"measurement": "remaining activity at 0.1 µM", "setting": "[6]", "value": 100, "unit": "%"}, {"measurement": "remaining activity at 0.1 µM", "setting": "[7]", "value": 95, "unit": "%"}, {"measurement": "remaining activity at 0.1 µM", "setting": "[8]", "value": 100, "unit": "%"}, {"measurement": "remaining activity at 0.1 µM", "setting": "[9]", "value": 100, "unit": "%"}, {"measurement": "remaining activity at 0.1 µM", "setting": "[10]", "value": 96, "unit": "%"}, {"measurement": "remaining activity at 0.1 µM", "setting": "[11]", "value": 90, "unit": "%"}, {"measurement": "remaining activity at 0.1 µM", "setting": "[12]", "value": 99, "unit": "%"}, {"measurement": "remaining activity at 0.1 µM", "setting": "[13]", "value": 98, "unit": "%"}, {"measurement": "remaining activity at 0.1 µM", "setting": "[14]", "value": 100, "unit": "%"}, {"measurement": "remaining activity at 0.1 µM", "setting": "[15]", "value": 100, "unit": "%"}, {"measurement": "remaining activity at 0.1 µM", "setting": "[16]", "value": 83, "unit": "%"}, {"measurement": "remaining activity at 0.1 µM", "setting": "[17]", "value": 77, "unit": "%"}, {"measurement": "remaining activity at 0.1 µM", "setting": "[18]", "value": 79, "unit": "%"}, {"measurement": "remaining activity at 0.1 µM", "setting": "[19]", "value": 88, "unit": "%"}, {"measurement": "remaining activity at 0.1 µM", "setting": "[20]", "value": 100, "unit": "%"}, {"measurement": "remaining activity at 0.1 µM", "setting": "[21]", "value": 80, "unit": "%"}, {"measurement": "Percent Control at 100 nM Compound Concentration", "setting": "[22]", "value": 100, "unit": "%"}, {"measurement": "remaining activity at 0.1 µM", "setting": "[23]", "value": 72, "unit": "%"}, {"measurement": "remaining activity at 0.1 µM", "setting": "[24]", "value": 100, "unit": "%"}, {"measurement": "remaining activity at 0.1 µM", "setting": "[25]", "value": 85, "unit": "%"}, {"measurement": "remaining activity at 0.1 µM", "setting": "[26]", "value": 100, "unit": "%"}, {"measurement": "remaining activity at 0.1 µM", "setting": "[27]", "value": 99, "unit": "%"}, {"measurement": "remaining activity at 0.1 µM", "setting": "[28]", "value": 97, "unit": "%"}, {"measurement": "remaining activity at 0.1 µM", "setting": "[29]", "value": 100, "unit": "%"}]}
